Measured values published in patent US9920010B2, “CXCR7 receptor modulators” (IDORSIA PHARMACEUTICALS LTD, priority 2013, dated 2018).

The molecules below were run against T1, CXCR7 (Homo sapiens, UniProt P25106) (assay: PathHunter CHO-K1 CXCR7 b-arrestin recruitment assay (CXCR7 agonistic activity)). Conditions: PathHunter CHO-K1 CXCR7 b-arrestin cell line.
T1 construct: host or cells: CHO-K1 (PathHunter CHO-K1 CXCR7 b-arrestin cell line, stably transfected)
Type: cell-based
Summary of the method: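 Stable CHO-K1 line with C-terminally ProLink-tagged CXCR7 and β-arrestin 2–EA fusion; β-arrestin recruitment restores β-gal activity, read by chemiluminescence after 1 h RT detection. Cells seeded 24 h, starved in OPTIMEM 3–4 h, exposed to compounds 90 min at 37 °C in HBSS/HEPES/BSA. Geometric-mean EC50 from repeated measurements.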

T1 sequence (P25106 whole entry): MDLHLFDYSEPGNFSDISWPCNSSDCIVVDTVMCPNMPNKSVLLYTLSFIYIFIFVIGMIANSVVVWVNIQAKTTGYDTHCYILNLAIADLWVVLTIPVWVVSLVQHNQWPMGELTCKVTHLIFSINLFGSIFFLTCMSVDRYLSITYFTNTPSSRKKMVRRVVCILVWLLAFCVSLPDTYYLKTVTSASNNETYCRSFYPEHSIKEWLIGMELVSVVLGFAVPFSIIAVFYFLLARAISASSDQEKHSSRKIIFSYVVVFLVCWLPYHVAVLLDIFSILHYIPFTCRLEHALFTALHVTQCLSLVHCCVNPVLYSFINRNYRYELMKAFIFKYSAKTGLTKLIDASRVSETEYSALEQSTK
T1 sequence (P32121 whole entry partner): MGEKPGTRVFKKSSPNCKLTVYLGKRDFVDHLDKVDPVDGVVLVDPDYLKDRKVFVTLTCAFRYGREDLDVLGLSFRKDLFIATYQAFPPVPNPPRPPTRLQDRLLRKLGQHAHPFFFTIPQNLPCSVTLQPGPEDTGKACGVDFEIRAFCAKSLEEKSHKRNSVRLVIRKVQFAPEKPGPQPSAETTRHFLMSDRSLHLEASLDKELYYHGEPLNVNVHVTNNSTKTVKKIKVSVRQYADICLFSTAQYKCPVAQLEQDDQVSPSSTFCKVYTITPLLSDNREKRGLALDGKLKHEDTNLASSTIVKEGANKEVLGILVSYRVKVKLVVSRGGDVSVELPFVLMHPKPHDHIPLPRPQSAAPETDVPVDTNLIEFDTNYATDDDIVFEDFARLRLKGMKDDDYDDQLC

EC50 [nM] | SMILES
7 | CN(C)CCN(Cc1ccc(F)cc1C(F)(F)F)C(=O)CNc1cccc2c1CCN(CC1CC1)C2 [Example 54, 2-(2-Cyclopropylmethyl-1,2,3,4-tetrahydro-isoquinolin-5-ylamino)-N-(2-dimethylamino-ethyl)-N-(4-fluoro-2-trifluoromethyl-benzyl)-acetamide]
43 | CN(C)CCN(CCc1cccc(C(F)(F)F)c1)C(=O)CNc1cccc2c1CCN(CC1CC1)C2 [Example 55, 2-(2-Cyclopropylmethyl-1,2,3,4-tetrahydro-isoquinolin-5-ylamino)-N-(2-dimethylamino-ethyl)-N-[2-(3-trifluoromethyl-phenyl)-ethyl]-acetamide]
70 | CN(C)CCN(CCc1ccc(C(F)(F)F)cc1)C(=O)CNc1cccc2c1CCN(CC1CC1)C2 [Example 56, 2-(2-Cyclopropylmethyl-1,2,3,4-tetrahydro-isoquinolin-5-ylamino)-N-(2-dimethylamino-ethyl)-N-[2-(4-trifluoromethyl-phenyl)-ethyl]-acetamide]
24 | CN(C)CCN(CCc1ccccc1C(F)(F)F)C(=O)CNc1cccc2c1CCN(CC1CC1)C2 [Example 57, 2-(2-Cyclopropylmethyl-1,2,3,4-tetrahydro-isoquinolin-5-ylamino)-N-(2-dimethylamino-ethyl)-N-[2-(2-trifluoromethyl-phenyl)-ethyl]-acetamide]
147 | COc1ccc(CCN(CCN(C)C)C(=O)CNc2cccc3c2CCN(CC2CC2)C3)cc1OC [Example 59, 2-(2-Cyclopropylmethyl-1,2,3,4-tetrahydro-isoquinolin-5-ylamino)-N-[2-(3,4-dimethoxy-phenyl)-ethyl]-N-(2-dimethylamino-ethyl)-acetamide]
1 | CCN(CC)CCN(Cc1ccccc1C(F)(F)F)C(=O)CNc1cccc2c1CCN(CC1CC1)C2 [Example 60, 2-(2-Cyclopropylmethyl-1,2,3,4-tetrahydro-isoquinolin-5-ylamino)-N-(2-diethylamino-ethyl)-N-(2-trifluoromethyl-benzyl)-acetamide]
1 | O=C(CNc1cccc2c1CCN(CC1CC1)C2)N(CCN1CCCC1)Cc1ccccc1C(F)(F)F [Example 62, 2-(2-Cyclopropylmethyl-1,2,3,4-tetrahydro-isoquinolin-5-ylamino)-N-(2-pyrrolidin-1-yl-ethyl)-N-(2-trifluoromethyl-benzyl)-acetamide]
19 | O=C1CCCN1CCN(Cc1ccccc1C(F)(F)F)C(=O)CNc1cccc2c1CCN(CC1CC1)C2 [Example 63, 2-(2-Cyclopropylmethyl-1,2,3,4-tetrahydro-isoquinolin-5-ylamino)-N-[2-(2-oxo-pyrrolidin-1-yl)-ethyl]-N-(2-trifluoromethyl-benzyl)-acetamide]
8 | O=C(CNc1cccc2c1CCN(CC1CC1)C2)N(CCN1CCOCC1)Cc1ccccc1C(F)(F)F [Example 64, 2-(2-Cyclopropylmethyl-1,2,3,4-tetrahydro-isoquinolin-5-ylamino)-N-(2-morpholin-4-yl-ethyl)-N-(2-trifluoromethyl-benzyl)-acetamide]
168 | CCN(Cc1ccccc1Cl)C(=O)CNc1cccc2c1CCN(CC1CC1)C2 [Example 66, N-(2-Chloro-benzyl)-2-(2-cyclopropylmethyl-1,2,3,4-tetrahydro-isoquinolin-5-ylamino)-N-ethyl-acetamide]
115 | N#CCCN(Cc1ccccc1)C(=O)CNc1cccc2c1CCN(CC1CC1)C2 [Example 67, N-Benzyl-N-(2-cyano-ethyl)-2-(2-cyclopropylmethyl-1,2,3,4-tetrahydro-isoquinolin-5-ylamino)-acetamide]
330 | NC(=O)CCN(Cc1ccccc1)C(=O)CNc1cccc2c1CCN(CC1CC1)C2 [Example 68, 3-{Benzyl-[2-(2-cyclopropylmethyl-1,2,3,4-tetrahydro-isoquinolin-5-ylamino)-acetyl]-amino}-propionamide]
418 | Cc1cccc(CN(C(=O)CNc2cccc3c2CCN(CC2CC2)C3)C2CC2)c1C [Example 69, N-Cyclopropyl-2-(2-cyclopropylmethyl-1,2,3,4-tetrahydro-isoquinolin-5-ylamino)-N-(2,3-dimethyl-benzyl)-acetamide]
326 | CCOC(=O)CN(Cc1ccccc1)C(=O)CNc1cccc2c1CCN(CC1CC1)C2 [Example 71, {Benzyl-[2-(2-cyclopropylmethyl-1,2,3,4-tetrahydro-isoquinolin-5-ylamino)-acetyl]-amino}-acetic acid ethyl ester]
28 | N#CCCN(Cc1ccccc1C(F)(F)F)C(=O)CNc1cccc2c1CCN(CC1CC1)C2 [Example 72, N-(2-Cyano-ethyl)-2-(2-cyclopropylmethyl-1,2,3,4-tetrahydro-isoquinolin-5-ylamino)-N-(2-trifluoromethyl-benzyl)-acetamide]
66 | NCCN(Cc1ccc(C(F)(F)F)cc1)C(=O)CNc1cccc2c1CCN(CC1CC1)C2 [Example 73, N-(2-Amino-ethyl)-2-(2-cyclopropylmethyl-1,2,3,4-tetrahydro-isoquinolin-5-ylamino)-N-(4-trifluoromethyl-benzyl)-acetamide]
49 | O=C(CNc1cccc2c1CCN(CC1CC1)C2)N(Cc1ccccc1C(F)(F)F)C1CCOCC1 [Example 74, 2-(2-Cyclopropylmethyl-1,2,3,4-tetrahydro-isoquinolin-5-ylamino)-N-(tetrahydro-pyran-4-yl)-N-(2-trifluoromethyl-benzyl)-acetamide]
137 | O=C(CNc1cccc2c1CCN(CC1CC1)C2)N(CCc1ccc(F)cc1)Cc1ccccc1 [Example 75, N-Benzyl-2-(2-cyclopropylmethyl-1,2,3,4-tetrahydro-isoquinolin-5-ylamino)-N-[2-(4-fluoro-phenyl)-ethyl]-acetamide]
2 | CN(C)CCN(Cc1ccccc1C(F)(F)F)C(=O)CNc1cccc2c1CCN(CC1CC1)C2 [Example 76, 2-(2-Cyclopropylmethyl-1,2,3,4-tetrahydro-isoquinolin-5-ylamino)-N-(2-dimethylamino-ethyl)-N-(2-trifluoromethyl-benzyl)-acetamide]
46 | Cc1csc(CN(Cc2ccccc2C(F)(F)F)C(=O)CNc2cccc3c2CCN(CC2CC2)C3)n1 [Example 77, 2-(2-Cyclopropylmethyl-1,2,3,4-tetrahydro-isoquinolin-5-ylamino)-N-(4-methyl-thiazol-2-ylmethyl)-N-(2-trifluoromethyl-benzyl)-acetamide]
376 | O=C1CC(CN(Cc2ccccc2C(F)(F)F)C(=O)CNc2cccc3c2CCN(CC2CC2)C3)=CC=N1 [Example 78, 2-(2-Cyclopropylmethyl-1,2,3,4-tetrahydro-isoquinolin-5-ylamino)-N-(2-oxo-2,3-dihydro-pyridin-4-ylmethyl)-N-(2-trifluoromethyl-benzyl)-acetamide]
135 | O=C(CNc1cccc2c1CCN(CC1CC1)C2)N(CCN1CCNC1=O)Cc1ccccc1C(F)(F)F [Example 79, 2-(2-Cyclopropylmethyl-1,2,3,4-tetrahydro-isoquinolin-5-ylamino)-N-[2-(2-oxo-imidazolidin-1-yl)-ethyl]-N-(2-trifluoromethyl-benzyl)-acetamide]
158 | O=C(CNc1cccc2c1CCN(CC1CC1)C2)N(CCOCc1ccccc1)Cc1ccccc1C(F)(F)F [Example 82, N-(2-Benzyloxy-ethyl)-2-(2-cyclopropylmethyl-1,2,3,4-tetrahydro-isoquinolin-5-ylamino)-N-(2-trifluoromethyl-benzyl)-acetamide]
88 | CN(CCN(Cc1ccccc1C(F)(F)F)C(=O)CNc1cccc2c1CCN(CC1CC1)C2)C(=O)OC(C)(C)C [Example 83, {2-[[2-(2-Cyclopropylmethyl-1,2,3,4-tetrahydro-isoquinolin-5-ylamino)-acetyl]-(2-trifluoromethyl-benzyl)-amino]-ethyl}-methyl-carbamic acid tert-butyl ester]
272 | CC(C)(C)OC(=O)N1[C@H](CN(Cc2ccccc2C(F)(F)F)C(=O)CNc2cccc3c2CCN(CC2CC2)C3)COC1(C)C [Example 84, (R)-4-{[[2-(2-Cyclopropylmethyl-1,2,3,4-tetrahydro-isoquinolin-5-ylamino)-acetyl]-(2-trifluoromethyl-benzyl)-amino]-methyl}-2,2-dimethyl-oxazolidine-3-carboxylic acid tert-butyl ester]
187 | CN(C)CCN(Cc1ccccc1)C(=O)CNc1cccc2c1CCN(CC(F)(F)F)C2 [Example 85, N-Benzyl-N-(2-dimethylamino-ethyl)-2-[2-(2,2,2-trifluoro-ethyl)-1,2,3,4-tetrahydro-isoquinolin-5-ylamino]-acetamide]
23 | CN(C)CCN(Cc1ccccc1C(F)(F)F)C(=O)CNc1cccc2c1CCN(CC(F)(F)F)C2 [Example 86, N-(2-Dimethylamino-ethyl)-2-[2-(2,2,2-trifluoro-ethyl)-1,2,3,4-tetrahydro-isoquinolin-5-ylamino]-N-(2-trifluoromethyl-benzyl)-acetamide]
3 | CN(C)CCN(Cc1ccccc1C(F)(F)F)C(=O)CN(C)c1cccc2c1CCN(CC1CC1)C2 [Example 87, 2-[(2-Cyclopropylmethyl-1,2,3,4-tetrahydro-isoquinolin-5-yl)-methyl-amino]-N-(2-dimethylamino-ethyl)-N-(2-trifluoromethyl-benzyl)-acetamide]
11 | CN(C)CCN(Cc1ccccc1C(F)(F)F)C(=O)CNc1c(Cl)ccc2c1CCN(CC1CC1)C2 [Example 88, 2-(6-Chloro-2-cyclopropylmethyl-1,2,3,4-tetrahydro-isoquinolin-5-ylamino)-N-(2-dimethylamino-ethyl)-N-(2-trifluoromethyl-benzyl)-acetamide]
8 | COc1ccc2c(c1NCC(=O)N(CCN(C)C)Cc1ccccc1C(F)(F)F)CCN(CC1CC1)C2 [Example 89, 2-(2-Cyclopropylmethyl-6-methoxy-1,2,3,4-tetrahydro-isoquinolin-5-ylamino)-N-(2-dimethylamino-ethyl)-N-(2-trifluoromethyl-benzyl)-acetamide]
